The values below come from patent US20080300303A1, “Substances and Pharmaceutical Compositions for the Inhibition of Glyoxalases and Their Use As Anti-Fungal Agents” (priority 2005, published 2008).

Each structure is given as a SMILES string. Structures can show the parent of a compound that is named as a salt.

Series [1] concerns primary human skin fibroblasts. Briefly: Vitality of primary human fibroblasts (dye exclusion count). The series is classed as cell-based. The conditions noted are these: 1-50 mM, 24 hours, serum free medium, FIG. 7. The protocol: An identical number (10^4 cells per well) of primary human skin fibroblasts were inoculated in 24-well plates (Greiner, no. 662160) and were cultured in DMEM (Gibco; no. 41966-092) in the presence of 10% calf serum (Biochrom, S0113/5), 2 mM L-glutamine (Gibco; no. 25030-024), penicillin/streptomycin (100 units penicillin/ml; 100 μg streptomycin/ml, Gibco; no. 15140/122), 5 mg % ascorbic acid (Serva, no. 14030.02) at 37° C., 5% CO2 and 95% humidity. The primary human fibroblasts were prepared according to the instructions of Birkenmeier et al. (1998). After reaching 50% confluency the medium was by fresh serum free medium. Thereafter the following supplements were added to the cells: preparation 1 (equivalent volume of serum free (SF) medium, blank); preparation 2 (1 mM DEL or 1 mM LEL or 1 mM EP); preparation 3 (5 mM DEL or 5 mM LEL or 5 mM EP), preparation 4 (10 mM DEL or 10 mM LEL or 10 mM EP), preparation 5 (20 mM DEL or 20 mM LEL or 20 mM EP), preparation 6 (50 mM DEL or 50 mM LEL or 50 mM EP). The culture was continued at 37° C., 5% CO2 and 95% humidity for 24 hours. Thereafter the supernatants were removed and 100 μl of a 50% […] solution was added to the wells. After washing the cells with medium the unstained and stained cells were counted under the light optical microscope comprising a coordinate plane. Cells stained blue were assessed as avital, unstained cells as vital. The percentage of unstained cells of the total number of cells corresponds to the vitality of the cells.

A further series has as its target T1, yeast glyoxalase I (Saccharomyces cerevisiae, UniProt P50107).
T1 construct: purchased Sigma G-4252
T1 sequence (P50107 1-326): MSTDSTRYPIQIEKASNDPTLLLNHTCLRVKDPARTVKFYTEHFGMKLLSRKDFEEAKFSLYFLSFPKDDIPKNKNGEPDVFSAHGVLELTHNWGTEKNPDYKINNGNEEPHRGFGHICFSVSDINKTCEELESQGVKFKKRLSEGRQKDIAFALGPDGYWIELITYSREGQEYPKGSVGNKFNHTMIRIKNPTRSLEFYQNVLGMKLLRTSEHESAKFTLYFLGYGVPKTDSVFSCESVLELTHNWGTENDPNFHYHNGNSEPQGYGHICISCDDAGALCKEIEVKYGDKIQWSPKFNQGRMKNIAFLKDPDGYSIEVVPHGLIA
Nature of the series: Enzymatic activity of yeast glyoxalase I. The series is classed as biochemical. The conditions noted are these: for Inhibition of the reaction of yeast glyoxalase I: increasing concentrations (FIG. 1-3; 0-30 mM in FIG. 3). The protocol: Measuring glyoxalase I (E.C.4.4.1.5, lactoyl-glutathione lyase Sigma, G-4252) was performed according to the instructions of McLellan and Thornalley (1989). The principle is based on measuring the initial rate of formation of S-D-lactoyl-glutathione from methylglyoxal (Sigma, M0252, 40%) and reduced L-glutathione (Aldrich, G-4251, >99%). The formation of the product is observed using the extinction coefficient e=2.86 mM−1 cm−1 at 240 nm. The measurement was performed in 50 mM sodium phosphate buffer, pH 7.0. For that purpose 2 mM methylglyoxal and 2 mM reduced glutathione were incubated for 2 minutes at 30° C. for the formation of the hemithioacetal. Thereafter 20 μl of a 1 to 1000 dilution of the glyoxalase I (Sigma, G-4252) was added to 1 ml of the measuring reagent to start the reaction.
Glyoxalase activity (IU) corresponds to the amount of enzyme forming 1 μmol of S-D-lactoyl-glutathione/min.
Determination of glyoxalase I activity was performed according to the general protocol as described above. The influence of ethyl pyruvate on enzyme activity was investigated by addition of increasing concentrations of EP (Sigma; no. E4,780-8; lot. S18972-513) to the measuring reagent.
Determination of glyoxalase I activity was performed according to the general protocol as described above. The influence of compounds of the general formula (I), (II), and (III) on the activity of the enzyme was investigated by addition of increasing concentrations of these compounds to the preparation. The IC50-values were calculated from inhibition curves of each compound.
Determination of glyoxalase I activity . . . was performed according to the general protocol as described above. The influence of 2-oxopropanethioic acid S-ethyl ester on the activity of the enzyme was investigated by addition of increasing concentrations of SE to the preparation for the measurement.
Determination of glyoxalase I activity was performed according to the general protocol as described above. The influence of effectors on the enzymatic activity was investigated by addition of increasing concentrations (0-30 mM) of EP (Sigma; no. E4,780-8; lot. S18972-513) (triangle), BP (prepared according to the instructions of patent JP 11080089; 98%) (circle) and BL (Fluka, 69819; lot. 443090/1 21503090) (squares) to the measuring reagent (FIG. 3).

Series [2] concerns Saccharomyces cerevisiae HD65-5a. Nature of the series: Growth of yeast cells, O.D. at 600 nm. The conditions noted are these: increasing concentrations, (FIG. 8, Table 5).
Experimental: A colony of strain HD 65-5a (Saccharomyces cerevisiae) was inoculated in 5 ml YPD-medium [(2% glucose (Fluka), 1% yeast extract (BD, Sparks), 2% peptone (BD, Sparks)] in a rotating 20 ml glass tube and was incubated overnight at 30° C. At an O.D. of 12.9 (580 nm) a starting density of O.D. 0.19 was adjusted by dilution with a culture medium.
The culture was aliquoted to 10 ml (in 20 ml glass tubes), and the respective test substances were added. The aliquots were incubated at 30° C. under continuous rotation of the tubes (200 U/min). At the indicated times, samples were removed and optical density was determined at a wavelength of 600 nm.
A colony of Saccharomyces strain HD65-5a was cultured as describe above.
After defined intervals 1 ml samples were removed and the O.D. was measured at 600 nm.
A colony of Saccharomyces strain HD65-5a was cultured as describe above. […] Samples of 1 ml were taken after 8 hours and were measured at 600 nm.
In series [3] the test system is fluconazole resistant Candida albicans strain A435 5. Briefly: Growth of fluconazole resistant Candida albicans, O.D. at 600 nm. The series is classed as cell-based. The protocol:
A colony of the fluconazole resistant Candida albicans strain A435 5 was cultured in the same medium and under the same conditions as used for Saccharomyces HD65-5a.
At an O.D. of 14.4 (600 nm) a starting density of O.D. 0.20 was set by dilution with culture medium.
(§1) Samples of 1 ml were taken after 5 hours and the O.D. at 600 nm was determined as a standard for the cell number. The resistance against fluconazole was determined according to the guidelines of NCCLS (1997). Resistance is defined as growth at a dosage of a ≧64 μg/ml of fluconazole.

Series [4] concerns fluconazole sensitive Candida albicans strain R/HO13. Nature of the series: Growth of fluconazole sensitive Candida albicans, O.D. at 600 nm. It counts as cell-based.
Experimental: A colony of the fluconazole sensitive Candida albicans strain R/HO13 was cultured as described above. […] Samples of 1 ml were taken after 9 hours and the O.D. was measured at 600 nm.
Series [5] deals with Candida albicans, Candida krusei, Candida tropicalis, Candida glabrata, Candida parapsilosis. Nature of the series: Agar dilution antimicrobial susceptibility test. The conditions noted are these: 12.5 mM to 40 mM in agar, 37° C., 20 hours, FIG. 9. The series is classed as cell-based, Candida spp. The protocol:
Control agar plates were prepared without EP.

Series [6] concerns Candida albicans. Briefly: Mouth lavage in a patient suffering from candidiasis. The series is classed as in vivo. The conditions noted are these: lavage 10 ml 75 mM ethyl pyruvate, 1% glucose in saline, 3 times daily over 4 days. The method, then:
A patient with a diagnosis of diabetes mellitus (presenting with a fasting blood sugar level of 6.88 mM) complained about dryness in the mouth, chapped lips and white blotchy alterations of the oral mucosa.

Series [7] addresses T2, glyoxalase I of human erythrocytes (Homo sapiens, UniProt Q04760).
T2 construct: from tissue; host or cells: human erythrocyte lysate
T2 sequence (Q04760 2-184 limits assumed): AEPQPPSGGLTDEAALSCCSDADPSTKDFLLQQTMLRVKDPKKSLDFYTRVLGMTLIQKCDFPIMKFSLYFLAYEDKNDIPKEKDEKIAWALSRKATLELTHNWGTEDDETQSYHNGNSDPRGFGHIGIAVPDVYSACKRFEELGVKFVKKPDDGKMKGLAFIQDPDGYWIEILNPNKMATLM
Nature of the series: Enzymatic activity of human erythrocyte glyoxalase I. It counts as biochemical. The conditions noted are these: 0-50 mM, FIG. 5. The method, then: The determination of glyoxalase I was performed as described above for the yeast enzyme. After the formation of the hemithioacetal, suitable amounts (5 to 100 μl) of an erythrocyte lysate were added to 1 ml of the measuring reagent to start the reaction. The erythrocyte lysate was prepared according to the instructions of Mannervik et al. (1982).
Glyoxalase activity (IU) corresponds to the amount of enzyme forming […] of S-D-lactoyl-glutathione/min.
Determination of glyoxalase I activity was performed according to the general protocol as described above. The influence of ethyl pyruvate on enzyme activity was investigated by addition of increasing concentrations of EP (Sigma; no. E4,780-8; lot. S18972-513) (0-50 mM) to the measuring reagent.

For a further series, the system named is yeast glyoxalase II. Briefly: Enzymatic activity of yeast glyoxalase II (cell free extract). The series is classed as biochemical, Saccharomyces cerevisiae. The conditions noted are these: 0-20 mM, FIG. 4. The protocol:
Protein concentration of the cell free extract was determined according to the Bradford method (Bradford, 1976).
The activity of the glyoxalase II (Hydroxyacyl glutathione hydrolase, E.C. 3.1.2.6.) was determined according to the instructions of Martins et al. (1999) in 0.1 M MES buffer, pH 6.5, 1.5 mM S-D-lactoyl-glutathione (L7140, Sigma-Aldrich Chemistry GmbH) and 0.75 mM DTNB (Sigma, D8130). After addition of suitable amounts of cell extract and an incubation period of 15 min at 25° C. the formation of glutathione was measured at 412 nm (ε=13.6 mM^−1 cm^−1). The activity of the glyoxalase II (IU) correlates with the amount of enzyme hydrolysing 1 μmol of S-D-lactoyl-glutathion/min.
The influence of ethyl pyruvate on the activity of the enzyme was investigated by adding increasing concentrations of EP (Sigma, No. E4,780-8; Lot. S18972-513) (0-20 mM) to the measurement reagent.

The target in series [8] is T3, glyoxalase II of human erythrocytes (Homo sapiens, UniProt Q16775).
T3 construct: from tissue; host or cells: human erythrocyte hemolysate
Nature of the series: Enzymatic activity of human erythrocyte glyoxalase II. The conditions noted are these: 0-20 mM, FIG. 6. The series is classed as biochemical. The protocol: The determination of erythrocyte glyoxalase II (E.C.3.1.2.6., hydroxyacyl glutathione hydrolase) was performed according to the instructions of McLellan and Thornalley (1989). The principle is based on determining the initial hydrolysis of S-D-lactoyl-glutathione (L 7140, Sigma—Aldrich Chemie GmbH) in the presence of low amounts of a cell extract. Hydrolysis is observed on the basis of the reduction of the extinction at 240 nm (e=−3.1 mM−1 cm−1). Glyoxalase II activity (IU) correlates to the amount of enzyme hydrolysing 1 μmol of S-D-lactoyl-glutathione/min. The measurement was performed in 100 mM Tris-HCl buffer, pH 7.4. For this purpose 0.4 mM S-D-lactoyl-glutathione was added to 1 ml of the measuring reagent and the reaction was started by addition of suitable amounts (5-100 μl) of an erythrocyte hemolysate. The erythrocyte lysate was prepared according to the instructions of Mannervik et al. (1982).
Determination of glyoxalase II activity was performed according to the general protocol as described above. The influence of ethyl pyruvate on the activity of the enzyme was investigated by addition of increasing concentrations of EP (Sigma, no. E 4,780-8; lot. S18972-513) (0-20 mM) to the measuring reagent.

Series [9] concerns Candida albicans. Nature of the series: Fluconazole susceptibility according to NCCLS guidelines. It counts as cell-based. The method, then:
as §1
The strain was sensitive against fluconazole at a dosage of ≦0.13 μg/ml.

What is called IC50 is the concentration needed to halve the response being measured.

For `CCOC(=O)[C@@H](C)O` [(+)-Ethyl D-Lactate], in series [1], the “Toxicity / vitality of primary human fibroblasts” value (“Toxicity / vitality” for short) is “not toxic”.
`CCCCOC(=O)[C@H](C)O` [(−)-Butyl L-Lactate]: at yeast glyoxalase I, the “Inhibition of the reaction of yeast glyoxalase I” value is “does not influence”.
As for `CCOC(=O)[C@H](C)O` [(−)-Ethyl L-Lactate], the “Toxicity / vitality” value in [1] is “not toxic”. Besides, the “Inhibition of growth of yeast cells” value in series [2] is given as “did not influence growth”.
In the case of `CCCCOC(=O)C(C)=O` [Butyl pyruvate], the “Inhibition of growth of fluconazole resistant Candida albicans cells” value in series [3] is recorded as “inhibit”. Besides, the “Inhibition of growth of fluconazole sensitive Candida albicans cells” value in series [4] was “inhibit”. In series [2], the “Inhibition of growth of yeast cells” value is recorded as “inhibit”. Further, on yeast glyoxalase I, it took 7.5 mM to reach half-maximal inhibition (IC50) and the “Inhibition of the reaction of yeast glyoxalase I” value is “inhibit”.
In the case of `CCOC(=O)C(=O)OCC` [Diethyl oxalate, reference compound], the IC50 against yeast glyoxalase I was > 50 mM.
Turning to `CCOC(=O)C(=O)CC` [Ethyl 2-oxobutyrate], the “Inhibition of growth of fluconazole resistant Candida albicans cells” value in series [3] is recorded as “inhibit”. The same compound registered an IC50 at yeast glyoxalase I of 1.8 mM.
On to `CCOC(=O)C(C)=O` [Ethyl pyruvate], for which the “Inhibition of growth and proliferation of different fungi (1-7)” value in [5] is recorded as “effectively inhibits”. For the same compound, the “Toxicity / vitality” value in [1] is listed as “not toxic”. Also, the “Inhibition of growth of fluconazole resistant Candida albicans cells” value in [3] was “inhibit”. The “Inhibition of growth of fluconazole sensitive Candida albicans cells” value in series [4] was “inhibit”. Moreover, the “Reduction of germ number in lavage of the oral cavity” value with Candida albicans [6] is on record as < 5%. Besides, the “Inhibition of the reaction of glyoxalase I of human erythrocytes” value in [7] is recorded as “inhibits”. Also, the “Inhibition of growth of yeast cells” value in series [2] (listed as EP) was “inhibit”. In the series on yeast glyoxalase II, the “Inhibition of the reaction of yeast glyoxalase II” value was “inhibits”. At yeast glyoxalase I, this compound came in with an IC50 of 10 mM. For the same compound, the “Inhibition of the reaction of yeast glyoxalase I” value at yeast glyoxalase I (listed as EP) is listed as “inhibit”. Further, the “Inhibition of the reaction of glyoxalase II of human erythrocytes” value in series [8] was “inhibits”.
In the case of `COC(=O)C(C)=O` [Methyl pyruvate], the IC50 against yeast glyoxalase I was 15 mM.
Take `CCSC(=O)C(C)=O` [SE, 2-Oxopropanethioic acid S-ethyl ester]: the “Inhibition of the reaction of yeast glyoxalase I” value at yeast glyoxalase I is “inhibits”.
On to `OC(Cn1cncn1)(Cn1cncn1)c1ccc(F)cc1F` [fluconazole], for which the “Fluconazole dosage at which growth defines resistance” value in the series on Candida albicans [9] (strain A435 5, NCCLS (1997)) is ≥ 64 µg/mL. In addition, the “Fluconazole dosage at which the strain was sensitive” value with Candida albicans [9] (strain R/HO13) was ≤ 0.13 µg/mL.
